Measured values: patent US11161825B2, “4-oxo-2,3,4,5-tetrahydro-1H-1,5-benzodiazepine-7-carboxamides” (Bayer Aktiengesellschaft, priority 2017, dated 2021)
pIC50: −log10 of the molar value.

Experiments:
SMYD3 = molecular target: T1, SMYD3 (Homo sapiens, UniProt Q9H7B4); test: SMYD3 Scintillation Proximity Assay (SPA), methylation of MAP3K2 Peptide; type: biochemical; details: SMYD3 full length enzyme 10 nM, 3H-SAM 125 nM, MAP3K2 Peptide 1 μM, 120 min at 22° C.
T1 construct: The SMYD3 full length enzyme was produced in-house by expression (with an N-terminal 6×His tag) in E. coli; 6xHis (N); made in house; host or cells: E. coli
T1 sequence (Q9H7B4 1-428): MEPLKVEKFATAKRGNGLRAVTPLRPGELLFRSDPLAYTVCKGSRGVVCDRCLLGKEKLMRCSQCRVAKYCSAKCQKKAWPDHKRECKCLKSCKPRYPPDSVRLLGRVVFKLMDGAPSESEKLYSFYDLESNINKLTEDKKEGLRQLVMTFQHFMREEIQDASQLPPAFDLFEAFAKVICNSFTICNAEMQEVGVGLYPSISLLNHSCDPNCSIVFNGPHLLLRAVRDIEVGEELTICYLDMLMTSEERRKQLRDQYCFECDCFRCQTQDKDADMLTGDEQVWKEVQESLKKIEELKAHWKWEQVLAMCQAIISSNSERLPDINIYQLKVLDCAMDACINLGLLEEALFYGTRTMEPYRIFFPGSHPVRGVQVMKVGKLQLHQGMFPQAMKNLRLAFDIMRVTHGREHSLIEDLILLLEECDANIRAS
Experimental: SMYD3 Scintillation Proximity Assay (SPA)
The SMYD3 full length enzyme was produced in-house by expression (with an N-terminal 6×His tag) in E. coli and purification by affinity chromatography on a Ni-NTA Sepharose column followed by a size exclusion chromatography step on a Superdex 200 16/60 column (GE Healthcare).
To this end, 100-fold concentrated compound solutions (in DMSO) were previously prepared by serial dilution (1:3.4) of 2 mM stocks in a clear low volume 384-well source microtiter plate (Greiner Bio-One), from which 100 nl of compounds were transferred into a white low volume test microtiter plate from the same supplier. […] The resulting mixture (5 μl final volume) was shortly centrifuged (2 min., 1500 rpm) and incubated at 22° C. during 120 min. […] Plates containing the stopped reaction were sealed with transparent adhesive foil (Perkin Elmer), centrifuged (2 min., 1500 rpm), and further incubated overnight at 4° C. in order to allow the SPA signals to develop. Subsequently, the amount of product was evaluated by measuring the energy transfer from the […] emitted by the 3H-labeled substrate to the scintillator co-polymerized in the bead's matrix, using a TopCount NXT scintillation counter (Packard) with the standard instrument settings for this purpose. The resulting scintillation counts were taken as indicator for the amount of methylated peptide per well. […] IC50 values were calculated by fitting the normalized inhibition data to a 4-parameter logistic equation using the XLFit analysis software (IDBS).

[1] = molecular target: T2, untagged full length SMYD3 (Homo sapiens, UniProt Q9H7B4); test: Thermal Shift Assay; type: binding; details: protein 1.5-2.0 μM, 5× SYPRO Orange, scans 25° C. to 80° C.; control 4% DMSO
T2 construct: As protein untagged full length SMYD3 was used
T2 sequence (Q9H7B4 1-428): T1 sequence (Q9H7B4 1-428)
Experimental: Thermal Shift Assay Thermal melting experiments were performed with a ViiA™ Real-Time PCR machine (Thermo Fisher Scientific) in 384-well microliter plate with a final volume of 5 μL. Melting curves were obtained at a protein concentration of 1.5-2.0 μM and 5× SYPRO Orange (Invitrogen) using buffer containing 20 mM Tris pH7.0; 150 mM NaCl; 1.0 mM DTT. As protein untagged full length SMYD3 was used. […] As control 4% DMSO was used. Scans were measured from 25° C. to 80° C. at a scanning rate of 0.1° C./sec. All TSA data were analyzed by using Genedata Assay Analyzer.

Compound	pIC50 (SMYD3)	Thermal shift assay (° C.) [1] [°C]
C[C@H]1CC(=O)Nc2cc(C(=O)NCCC3CC3)ccc2N1C(=O)N1CCNCC1 [Example 41, (2S)—N-(2-cyclopropylethyl)-2-methyl-4-oxo-1-(piperazin-1-ylcarbonyl)-2,3,4,5-tetrahydro-1H-1,5-benzodiazepine-7-carboxamide]	6.58	7.22
C[C@H]1CC(=O)Nc2cc(C(=O)NCCC3CC3)ccc2N1C(=O)NC1CCNCC1 [Example 43, (2S)—N^7-(2-cyclopropylethyl)-2-methyl-4-oxo-N^1-(piperidin-4-yl)-2,3,4,5-tetrahydro-1H-1,5-benzodiazepine-1,7-dicarboxamide]	6.32	7.49
C[C@H]1CC(=O)Nc2cc(C(=O)NCCC3CC3)ccc2N1C(=O)N(C)C1CCNCC1 [Example 45, (2S)—N^7-(2-cyclopropylethyl)-N^1,2-dimethyl-4-oxo-N^1-(piperidin-4-yl)-2,3,4,5-tetrahydro-1H-1,5-benzodiazepine-1,7-dicarboxamide]	6.41	7.24
